Experimental data: PMC7118115, “Tumor-penetrating peptide for systemic targeting of Tenascin-C” (Scientific Reports, 2020)

What was measured:
WT-GBM = experiment: In vivo play-off phage auditioning, WT-GBM tumor; design: species or system murine WT-GBM glioblastoma in athymic nude mice; settings: phage-displayed peptide; equimolar mix, i.v. 1 × 10^10 pfu/mouse, 2 h circulation, perfusion; Ion-Torrent sequencing; mean, N = 3 mice
Experimental: (§1) Athymic nude mice (Hsd/Athymic Fox1 nu Harlan) were purchased from Envigo (Netherlands) and maintained under standard housing conditions of the Animal Facility of the Institute of Biomedicine and Translational Medicine, University of Tartu (Tartu, Estonia). For orthotropic GBM tumor models, we used NCH421K, P13, and P3 stem cell-like, WT-GBM cells. The individual GBM cells around 2–3 × 10^5 in 3 μL PBS were intracranially implanted into mice brain 2 mm right and 1 mm anterior to the bregma. U87-MG and PC3 subcutaneous models were induced by injecting 2–9 × 10^6 cells in 100 µl PBS subcutaneously into the right flank of 11–15 week old male and female nude mice. All animal experiments were performed in accordance with the procedures approved by the Committee of Animal Experimentation of Estonian Ministry of Agriculture, permits #42 and #48.
(§2) In vivo play-off was used for internally controlled and competitive systemic phage homing studies in mice bearing tumor xenografts. Phages displaying the candidate TNC-C binding peptides and control peptides were individually amplified and purified by precipitation with PEG-8000 (Sigma-Aldrich, St. Louis, MO, USA), followed by […] gradient ultracentrifugation and dialysis. The phages were pooled at equimolar representation (Table 1 for details) and injected iv at 1 × 10^10 pfu (in 200 µl PBS) in tumor-bearing mice, circulated for 2 h, followed by anesthesia and intracardial perfusion with DMEM. The tumors and organs were collected in lysogeny broth (LB) medium containing 1% NP40, and the tissues were homogenized using a hand-held homogenizer. Phages in the tissue lysate were amplified in E.coli, purified by precipitation with PEG-8000, and DNA was extracted using a DNA extraction kit (High Pure PCR Template Preparation Kit; Roche, Basel, Switzerland). Next-generation sequencing of phage genomic DNA with Ion Torrent system (Thermo Fisher Scientific, Waltham, MA, USA) was used to evaluate the representation of each peptide-phage in the input mixture, in tumors and control organs. The FASTQ data from Ion Torrent were processed using a custom python script that identified the barcodes, constant flanking residues, and extracted the reads of the correct length.

P3 SCL = experiment: In vivo play-off phage auditioning, P3 SCL tumor; design: species or system P3 stem cell-like glioblastoma in athymic nude mice; settings: phage-displayed peptide; equimolar mix, i.v. 1 × 10^10 pfu/mouse, 2 h circulation, perfusion; Ion-Torrent sequencing; mean, N = 3 mice
Experimental: as §1, §2

P13 = experiment: In vivo play-off phage auditioning, P13 tumor; design: species or system P13 glioblastoma in athymic nude mice; settings: phage-displayed peptide; equimolar mix, i.v. 1 × 10^10 pfu/mouse, 2 h circulation, perfusion; Ion-Torrent sequencing; mean, N = 3 mice
Experimental: as §1, §2

U87-MG = experiment: In vivo play-off phage auditioning, U87-MG tumor; design: species or system human glioblastoma in athymic nude mice; settings: phage-displayed peptide; equimolar mix, i.v. 1 × 10^10 pfu/mouse, 2 h circulation, perfusion; Ion-Torrent sequencing; mean, N = 3 mice
Experimental: as §1, §2

PC3 = experiment: In vivo play-off phage auditioning, PC3 tumor; design: species or system prostate carcinoma in athymic nude mice; settings: phage-displayed peptide; equimolar mix, i.v. 1 × 10^10 pfu/mouse, 2 h circulation, perfusion; Ion-Torrent sequencing; mean, N = 3 mice
Experimental: as §1, §2

Norm. brain = experiment: In vivo play-off phage auditioning, normal brain; design: species or system athymic nude mice; settings: phage-displayed peptide; equimolar mix, i.v. 1 × 10^10 pfu/mouse, 2 h circulation, perfusion; Ion-Torrent sequencing; mean, N = 3 mice
Experimental: as §2

recombinant TNC-C = experiment: Cell-free phage binding to TNC-C; design: species or system human; settings: individual T7 phage clones; Ni-NTA magnetic beads coated with hexahistidine-tagged TNC-C
Experimental: For biopanning on recombinant human TNC-C, we used NNK-encoded CX7C and X7 peptide T7 phage libraries with diversity ~5 × 10^8. Throughout our screens, the selected phages were amplified following plate amplification protocol. The 1st and 4th rounds of biopanning were performed on TNC-C immobilized on Costar 96-Well ELISA plate (#3590, Corning Life Sciences, Tewksbury, MA, USA). Briefly, the multiwell plates were coated with 20 µg/ml recombinant TNC-C in 100 µl of PBS overnight at 4 °C, followed by blocking with 1% bovine serum albumin (BSA) in PBS overnight at 4 °C. The phage library (5 × 10^8 pfu in 100 µl of PBS-BSA) was incubated overnight at 4 °C, followed by 6 washes with PBS containing 1% BSA and 0.1% Tween-20 (washing buffer) to remove background phages, and by phage rescue and amplification in E. coli strain BLT5403 (Novagen, EMD Biosciences, MA, USA)[8]. The subsequent rounds of selection were performed on Ni-NTA Magnetic Agarose Beads (QIAGEN, Hilden, Germany) coated with His-6X tagged TNC-C (30 µg/10 µl beads) at room temperature for 1 h in 400 µl of PBS. The TNC-C beads were washed 3 times with washing buffer, followed by incubation with phages in (5 × 10^8 pfu in 100 µl in washing buffer) at room temperature for 1 h. The background phages were removed by rinsing 6 times with washing buffer, and the bound phages were eluted with 1 ml of PBS containing 500 mM Imidazole and 0.1% NP40.
The eluted phages were titered and amplified for a next round of selection. After 5 rounds of selection, peptide-encoding DNA from a set of 48 phage clones was subjected to Sanger sequencing of peptide-encoding phage DNA[18],[22]. For cell-free binding studies with individual phage clones were incubated with Ni-NTA magnetic beads coated with hexahistidine-tagged TNC-C as above. RPARPAR phage binding to NRP-1-coated beads was used as a positive control. Phage clones displaying heptaglycine peptide (GGGGGGG, G7), or insertless phage clones were used as negative controls. […]
Fig. S13. NRP -1-dependent internalization of PL3 -functionalized AgNPs […]
Supplementary Materials and Methods
Cloning, expression , and purification of TNC-C
Vector Construction. A pF1K (Promega, # FXC00319) derivative plasmid containing full -length cDNA of TNC was used for PCR amplification of cDNA region of TNC-C with Phusion Hot Start II High -Fidelity DNA Polymerase (Thermo Fisher Scientific Inc # F -537L; primer pairs:
5′- CTCCTCT […] -3′ and 5′ -
CAGACA CTCGAG TTATCA TGTAACAATCTC -3′ for domain TNC -C. NdeI and XhoI restriction sites underlined ). The fragments were cloned in the pET28a+ plasmid for TNC -C expression as a n N-terminally His -tagged protein .
Expression and purification of TNC-C. The pET28a+ TNC-C plasmid was used for transformation of E. coli BL21 Rosetta 2 (DE3) pLysS cells (Novagen, #70956). The protein expression was induced by addition of isopropyl β-D-1-thiogalactopyranoside (IPTG) (Sigma, # I6758) to 0.5 mM final concentration and the bacteria were culture d at 18 °C for 16h . Cells were […]
collected by centrifugation, resuspended in ice-cold IMAC buffer (25mM Tris-HCl, 400mM NaCl, 25mM imidazole pH 8, containing EDTA-free protease inhibitor cocktail and DNase I) and lysed by sonification (Bandelin Sonopuls HD 2070, Germany). The cleared bacterial lysate was purified using HiTrap IMAC HP column s (GE Healthcare # 17 -0920-05) on ÄKTA purification system (GE Healthcare ), and the eluate was dialyzed against PBS using 3.5 kDa cut - off 3mL Slide-A-Lyzer Dialysis Cassettes (Thermo Scientific #66330). TNC-C concentration was determined by bicinchoninic acid assay (Thermo Scientific #23227) , and the purity of the proteins was assessed by SDS -PAGE. Mass spectrometry and de novo peptide sequencing were used to confirm the size and sequence of the purified proteins . His-tagged NRP-1 b1b2 domain was expressed and purified as described (Teesalu et al., 2009) .
Single-chain antibodies: The cDNA sequences encoding TNC-C-G11-scFV were retrieved from […]

Substance | Representation of phage in tumors, WT-GBM (WT-GBM) | Representation of phage in tumors, P3 SCL (P3 SCL) | Representation of phage in tumors, P13 (P13) | Representation of phage in tumors, U87-MG (U87-MG) | Representation of phage in tumors, PC3 (PC3) | Representation of phage in control brain tissue (Norm. brain) (Norm. brain) | TNC-C binding (fold G7 control phage) (recombinant TNC-C)
AGRGRLVRAKLAAALE [Clone-5] | 23.9 fold G7 control phage | 0.4 fold G7 control phage | 0.1 fold G7 control phage | 0.2 fold G7 control phage | 0.3 fold G7 control phage | 0.0 fold G7 control phage | 5785 fold G7 control phage
AGVGRLRRAKLAAALE [Clone-1] | 2.3 fold G7 control phage | 0.9 fold G7 control phage | 0.9 fold G7 control phage | 1.0 fold G7 control phage | 1.4 fold G7 control phage | 0.2 fold G7 control phage | 3259 fold G7 control phage
AVRGRLRVAKLAAALE [Clone-3] | 1.3 fold G7 control phage | 0.6 fold G7 control phage | 0.6 fold G7 control phage | 0.8 fold G7 control phage | 1.0 fold G7 control phage | 0.1 fold G7 control phage | 
CAGRGRLVRC [Modified clone-5] | 0.9 fold G7 control phage | 0.2 fold G7 control phage | 0.4 fold G7 control phage | 0.1 fold G7 control phage | 0.4 fold G7 control phage | 0.0 fold G7 control phage | 
CQRMGVVGAKLAAALE [Clone 36] |  |  |  |  |  |  | 3928 fold G7 control phage
CRGVLRRAKLAAALE [Clone-2] | 1.6 fold G7 control phage | 0.4 fold G7 control phage | 0.4 fold G7 control phage | 0.7 fold G7 control phage | 0.9 fold G7 control phage | 0.1 fold G7 control phage | 5955 fold G7 control phage
CSRRGILRAKPAAALE [Clone-4] | 1.5 fold G7 control phage | 0.9 fold G7 control phage | 0.8 fold G7 control phage | 1.1 fold G7 control phage | 1.2 fold G7 control phage | 0.1 fold G7 control phage | 4889 fold G7 control phage
GGGGGGG [heptaglycine control phage, reference compound] | 1.0 fold G7 control phage | 1.0 fold G7 control phage | 1.0 fold G7 control phage | 1.0 fold G7 control phage | 1.0 fold G7 control phage | 1 fold G7 control phage | 
GRLTRVR [Clone-46] | 1.9 fold G7 control phage | 0.5 fold G7 control phage | 0.5 fold G7 control phage | 0.9 fold G7 control phage | 0.9 fold G7 control phage | 0.1 fold G7 control phage | 115 fold G7 control phage
RGRLRRVE [Clone 44] |  |  |  |  |  |  | 886 fold G7 control phage
RGRLVRA [Clone-45] | 3 fold G7 control phage | 0.3 fold G7 control phage | 0.4 fold G7 control phage | 0.8 fold G7 control phage | 1.8 fold G7 control phage | 0.1 fold G7 control phage | 737 fold G7 control phage
RGRLVRAK [Modified clone-5] | 23.8 fold G7 control phage | 0.3 fold G7 control phage | 0.1 fold G7 control phage | 0.5 fold G7 control phage | 3.0 fold G7 control phage | 0.2 fold G7 control phage | 
RRLVRVA [Clone-35] | 1.4 fold G7 control phage | 0.3 fold G7 control phage | 0.4 fold G7 control phage | 0.6 fold G7 control phage | 0.9 fold G7 control phage | 0.1 fold G7 control phage | 1223 fold G7 control phage
